We go through 1 substance from patent US9018248B2, “Fatty acid derivatives of catechins and methods of their use” (Genesis Group Inc., priority 2010, dated 2015).

The test system of assay [1] is iNOS. Nature of the assay: iNOS protein expression in LPS-stimulated RAW 264.7 macrophages (western blot). It is filed as cell-based, murine. The following applies: LPS 100 ng/ml, RAW 264.7, western blot; 20 and 40 μM for 1a-1c. The protocol:
RAW 264.7 cells were cultured in Rosewell Park Memorial Institute (RPMI) 1640 media (without phenol red) supplemented with 10% endotoxin-free, heat-inactivated fetal calf serum, 100 units/ml penicillin, and 100 μg/ml streptomycin. When the cells reached a density of 2-3×10^6 cells/ml, they were activated by incubation in a medium containing E. coli lipopolysaccharide (LPS) (100 ng/ml). Various concentrations of compounds of the disclosure in dimethyl sulphoxide (DMSO) were added together with LPS. Cells were treated with 0.05% DMSO as the vehicle control. The stimulated murine macrophage cell line RAW 264.7 cells were washed with PBS and lysed in an ice-cold RIPA buffer (Tris-HCl, pH 7.2, 25 mM; 0.1% SDS; 1% Triton X-100; 1% sodium deoxycholate; 0.15 M NaCl; 1 mM EDTA) containing 1 mM phenylmethyl sulphonyl fluoride (PMSF), 10 μg/mL aprotinin, 1 mM sodium ortho-vanadate, and 5 μg/mL leupeptin. Protein concentrations were determined using the BCA method (Pierce, Rockford, Ill.). The samples (50 μg of protein) were mixed with 5-fold of sample buffer containing 0.3 M Tris-HCl (pH 6.8), 25% 2-mercaptoethanol, 12% sodium dodecyl sulphate (SDS), 25 mM EDTA, 20% glycerol, and 0.1% bromophenol blue. The mixtures were boiled at 100° C. for 5 min, prerun on a stacking gel, and then resolved by 12% SDS-polyacrylamide minigels at a constant current of 20 mA. For western blot, proteins on the gel were electro-transferred onto a […] immobile polyvinylidene fluoride (PVDF) membrane with a transfer buffer composed of 25 mM Tris-HCl (pH 8.9), 192 mM glycine, and 20% methanol, as described by Pan et al. (2000). […] The densities of the bands were quantitated using a densitometer (AlphaImager 2200 System). […] (7b) Inhibition Against LPS-Induced NO Production in RAW 264.7 Macrophage The LPS-induced NO production by the macrophages was determined as nitrite concentration in the culture medium according to the Griess reaction. […] The absorbance of the mixture at 550 nm was measured with an ELISA plate reader (Dynatech MR-7000; Dynatech Laboratories, Chantilly, Va., USA). […]
On the technique in general: In western blotting, separated proteins are transferred to a membrane and probed.

Assay [2] concerns COX-2. Nature of the assay: COX-2 protein expression in LPS-stimulated RAW 264.7 macrophages (western blot). The note with it: LPS 100 ng/ml, RAW 264.7, western blot. It is filed as cell-based, murine. The protocol:
RAW 264.7 cells were cultured in Rosewell Park Memorial Institute (RPMI) 1640 media (without phenol red) supplemented with 10% endotoxin-free, heat-inactivated fetal calf serum, 100 units/ml penicillin, and 100 μg/ml streptomycin. When the cells reached a density of 2-3×10^6 cells/ml, they were activated by incubation in a medium containing E. coli lipopolysaccharide (LPS) (100 ng/ml). Various concentrations of compounds of the disclosure in dimethyl sulphoxide (DMSO) were added together with LPS. Cells were treated with 0.05% DMSO as the vehicle control. The stimulated murine macrophage cell line RAW 264.7 cells were washed with PBS and lysed in an ice-cold RIPA buffer (Tris-HCl, pH 7.2, 25 mM; 0.1% SDS; 1% Triton X-100; 1% sodium deoxycholate; 0.15 M NaCl; 1 mM EDTA) containing 1 mM phenylmethyl sulphonyl fluoride (PMSF), 10 μg/mL aprotinin, 1 mM sodium ortho-vanadate, and 5 μg/mL leupeptin. Protein concentrations were determined using the BCA method (Pierce, Rockford, Ill.). The samples (50 μg of protein) were mixed with 5-fold of sample buffer containing 0.3 M Tris-HCl (pH 6.8), 25% 2-mercaptoethanol, 12% sodium dodecyl sulphate (SDS), 25 mM EDTA, 20% glycerol, and 0.1% bromophenol blue. The mixtures were boiled at 100° C. for 5 min, prerun on a stacking gel, and then resolved by 12% SDS-polyacrylamide minigels at a constant current of 20 mA. For western blot, proteins on the gel were electro-transferred onto a […] immobile polyvinylidene fluoride (PVDF) membrane with a transfer buffer composed of 25 mM Tris-HCl (pH 8.9), 192 mM glycine, and 20% methanol, as described by Pan et al. (2000). Membrane blocking was then carried out at room temperature for 1 h in blocking solution (20 mM Tris-HCl pH 7.4, 125 mM NaCl, 0.2% Tween 20, 1% bovine serum albumin, and 0.1% sodium azide). The membrane was incubated with the primary antibody of iNOS and COX-2 at 4° C. overnight. The membranes were subsequently probed with selected IgG antibody conjugated to horseradish peroxidase (Transduction Laboratories, Lexington, Ky.) and visualized using enhanced chemiluminescence (ECL, Amersham). The densities of the bands were quantitated using a densitometer (AlphaImager 2200 System). All the membranes were stripped and reprobed for β-actin (Sigma Chemical Co., St. Louis, Mo.) as loading control. […] The inhibition of iNOS induction by compounds of the disclosure may be due to down regulation of iNOS gene expression. EGCG and compounds of the disclosure with antioxidant activities may inhibit the ROS/RNS-mediated activation of NF-κB, the transcription factor that promotes gene expression of iNOS. […] The difference in their ability to inhibit production of iNOS and COX-2 may be due to other mechanisms involved in addition to blocking the NF-κB signalling pathway. EGCG and its derivatives may also suppress the cytokine production by breaking down the mRNA and protein of iNOS and COX-2 to varied degrees. (7b) Inhibition Against LPS-Induced NO Production in RAW 264.7 Macrophage The LPS-induced NO production by the macrophages was determined as nitrite concentration in the culture medium according to the Griess reaction. The culture medium of the control and treated cells was collected and centrifuged. An aliquot (100 μL) of the supernatant was mixed with an equal volume of Griess reagent. The absorbance of the mixture at 550 nm was measured with an ELISA plate reader (Dynatech MR-7000; Dynatech Laboratories, Chantilly, Va., USA). […]

In assay [3] the test system is COX-2 mRNA. Nature of the assay: COX-2 mRNA expression in LPS-stimulated RAW264.7 macrophages (RT-PCR). In kind it is cell-based, mouse. The note with it: FIG. 12. The protocol:
(§1) Total RNA was isolated from mouse macrophage RAW264.7 cell using Trizol Reagent according to the manufacturer's instructions. Changes in the steady-state concentration of mRNA in iNOS, COX-2, and β-actin (control) were assessed by RT-PCR. Total RNA (2 μg) was converted to cDNA in a series of standard 10 μl reverse transcription reactions. DNA amplification was carried out in “Ready To Go” PCR Beads. The initial conditions were 95° C. for 5 min. Amplification 30 cycles of iNOS were 95° C. for 40 s, 65° C. for 60 s, and 72° C. for 2 min, followed by a 10 min extension at 72° C. The thermal cycle conditions of COX-2 were initiated at 95° C. for […], then 30 cycles of amplification (94° C. for 45 s, 55° C. for 60 s, and 72° C. for 2 min) were performed followed by 10 min extension at 72° C. The PCR products were separated by electrophoresis on a 1% agarose gel and visualized by ethidium bromide staining. Amplification of β-actin served as a control for sample loading and integrity. PCR was performed on the cDNA using the following sense and antisense primer: iNOS, forward primer 5′-[…]-[…]-3′ (2944-2968), reverse primer 5′-[…]-[…]-3′ (3419-3443); COX-2, forward primer 5′-[…]-[…]-3′ (1094-1117), reverse primer 5′-[…]-3′ (1931-1954); β-actin, forward primer 5′-[…]-3′, reverse primer 5′-[…]-3′. Confirmation of the correct amplicons was obtained by direct DNA sequencing of the PCR products.

Assay [4] relates to PGE2 production. Briefly: PGE2 production in LPS-stimulated RAW264.7 macrophages (EIA). It is filed as cell-based, mouse. The following applies: FIG. 10. From the text: The level of PGE2 released into the culture medium was quantified by a specific enzyme immunoassay (EIA) method using a ACE™ EIA kit according to the manufacturer's instructions. FIG. 10 illustrates that the production of the inflammatory mediator PGE2 was inhibited by 10a (EGCG-DPA). The EGCG ester 10a has improved lipophilicity and cellular absorption, and therefore provides synergistic effects with respect to the DPA (a competitive inhibitor against the omega-6 fatty acid arachidonic acid) for the COX enzymes) and EGCG (COX-2 inhibitor) moieties.

Assay [5] deals with LPS-induced NO production. Nature of the assay: LPS-induced NO production in RAW 264.7 macrophage (Griess reaction). In kind it is cell-based, murine. The following applies: LPS-stimulated RAW264.7 macrophages. The protocol:
RAW 264.7 cells were cultured in Rosewell Park Memorial Institute (RPMI) 1640 media (without phenol red) supplemented with 10% endotoxin-free, heat-inactivated fetal calf serum, 100 units/ml penicillin, and 100 μg/ml streptomycin. When the cells reached a density of 2-3×10^6 cells/ml, they were activated by incubation in a medium containing E. coli lipopolysaccharide (LPS) (100 ng/ml). Various concentrations of compounds of the disclosure in dimethyl sulphoxide (DMSO) were added together with LPS. Cells were treated with 0.05% DMSO as the vehicle control. The stimulated murine macrophage cell line RAW 264.7 cells were washed with PBS and lysed in an ice-cold RIPA buffer (Tris-HCl, pH 7.2, 25 mM; 0.1% SDS; 1% Triton X-100; 1% sodium deoxycholate; 0.15 M NaCl; 1 mM EDTA) containing 1 mM phenylmethyl sulphonyl fluoride (PMSF), 10 μg/mL aprotinin, 1 mM sodium ortho-vanadate, and 5 μg/mL leupeptin. Protein concentrations were determined using the BCA method (Pierce, Rockford, Ill.). The samples (50 μg of protein) were mixed with 5-fold of sample buffer containing 0.3 M Tris-HCl (pH 6.8), 25% 2-mercaptoethanol, 12% sodium dodecyl sulphate (SDS), 25 mM EDTA, 20% glycerol, and 0.1% bromophenol blue. The mixtures were boiled at 100° C. for 5 min, prerun on a stacking gel, and then resolved by 12% SDS-polyacrylamide minigels at a constant current of 20 mA. For western blot, proteins on the gel were electro-transferred onto a […] immobile polyvinylidene fluoride (PVDF) membrane with a transfer buffer composed of 25 mM Tris-HCl (pH 8.9), 192 mM glycine, and 20% methanol, as described by Pan et al. (2000). Membrane blocking was then carried out at room temperature for 1 h in blocking solution (20 mM Tris-HCl pH 7.4, 125 mM NaCl, 0.2% Tween 20, 1% bovine serum albumin, and 0.1% sodium azide). The membrane was incubated with the primary antibody of iNOS and COX-2 at 4° C. overnight. The membranes were subsequently probed with selected IgG antibody conjugated to horseradish peroxidase (Transduction Laboratories, Lexington, Ky.) and visualized using enhanced chemiluminescence (ECL, Amersham). The densities of the bands were quantitated using a densitometer (AlphaImager 2200 System). All the membranes were stripped and reprobed for β-actin (Sigma Chemical Co., St. Louis, Mo.) as loading control. […] The inhibition of iNOS induction by compounds of the disclosure may be due to down regulation of iNOS gene expression. […] (7b) Inhibition Against LPS-Induced NO Production in RAW 264.7 Macrophage The LPS-induced NO production by the macrophages was determined as nitrite concentration in the culture medium according to the Griess reaction. […] The absorbance of the mixture at 550 nm was measured with an ELISA plate reader (Dynatech MR-7000; Dynatech Laboratories, Chantilly, Va., USA). […]
(In general: The Griess reaction detects nitrite, a stable product of nitric oxide.)

Assay [6] has as its system iNOS mRNA. Nature of the assay: iNOS mRNA expression in LPS-stimulated RAW264.7 macrophages (RT-PCR). It is filed as cell-based, mouse. The following applies: FIG. 12. On the procedure: as §1

Consider EGCG-docosapentaenoate [Compound 10a], for which, in assay [1], the “Inhibition of iNOS protein expression” value was “inhibited”. Further, in assay [2], the “Inhibition of COX-2 protein expression” value is recorded as “inhibited”. In addition, the “Inhibition of COX-2 mRNA expression” value in assay [3] was “inhibited”. The “Inhibition of PGE2 production” value in assay [4] is given as “inhibited”. Also, the “Inhibition of NO production (in words)” value in assay [5] was “inhibited by 10a (EGCG-DPA) more effectively than DPA”. Further, in assay [6], the “Inhibition of iNOS mRNA expression” value is “inhibited”.
